Results from article PMC12750888, “Design, synthesis, and anti-Toxoplasma gondii evaluation of β-carboline derivatives” (Parasites & Vectors, 2025).
pIC50: −log10 of the molar value.

Tests used:
T. gondii RH tachyzoites = test: Screening for anti-T. gondii activity in vitro (plaque and qPCR assays); assay type: cell-based, Toxoplasma gondii; settings: for inhibition of growth at 30 µM: Toxoplasma gondii, Vero, 24 h, RH tachyzoites in Vero cells, plaque and qPCR assays
Protocol: The anti-T. gondii activity of compounds NBZ001‒037 was examined via RT-PCR. Confluent Vero cells in 6-well plates were infected with 2 × 10^5 T. gondii RH tachyzoites per well, incubated for 6 h, and then washed twice with PBS to remove extracellular tachyzoites. The cell monolayers were incubated with DMEM (1% FBS) containing various concentrations of NBZ001‒037 for 24 h. Total genomic DNA from each sample was isolated with the DNAiso reagent (Takara), and the levels of the 529-bp repeat element of T. gondii were measured by qPCR. A plaque assay was used to evaluate the activity of the compounds. The detailed experimental procedures were described in previous studies.

Vero cells = test: Cell viability assay (CCK-8) on Vero cells; assay type: cell-based, African green monkey; settings: 24 h; for Cytotoxicity: CCK-8, tested up to 30 µM; for inhibition at 30 µM: Chlorocebus sabaeus, CCK-8, read-out: Inhibition rate of Vero cell at 30 μM
Protocol: (§1) African green monkey kidney (Vero) cells were cultured in Dulbecco’s modified Eagle’s medium (DMEM) supplemented with 100 U/mL penicillin, 100 μg/mL streptomycin, 1% nonessential amino acids (NEAAs), 1% GlutaMAX and 10% fetal bovine serum (FBS) at 37 °C in an atmosphere of 5% CO2. […] DMEM without a drug was used as a control. After 24 h of treatment, Cell Counting Kit-8 (CCK-8, CA1210, Solarbio) was used to determine cell viability at 450 nm via a Multiskan GO instrument.

T. gondii tachyzoites = test: Ultrastructural analysis by transmission electron microscopy; assay type: cell-based, Toxoplasma gondii; settings: NBZ023 2.85 μM, NBZ035 1.6 μM
Protocol: The effects of the incubation with the drugs on the ultrastructure of T. gondii tachyzoites were observed via transmission electron microscopy (TEM). For TEM analysis, Vero cells were grown to confluence in T25 flasks and infected with 2 × 10^6 T. gondii tachyzoites for 8 h. After NBZ023 (2.85 μM) or NBZ035 (1.6 μM) was added, the cells were cultured for 8 or 24 h, then digested with TrypLE Express for 2 min, and washed twice with PBS. The detailed experimental procedures were described in a previous study.

[1] = system: T. gondii Type I tachyzoites; test: In vivo efficacy against acute T. gondii infection in mice (tissue parasite burden by qPCR); parameters: species or system BALB/c mice; settings: acute RH infection, once daily for 7 days, compared with parasite control, NBZ compounds 10 mg/kg BW intraperitoneally, positive control orally
Protocol: Female BALB/c mice (18-20 g, 6-8 weeks old) were divided into 4 groups consisting of 6 mice each, and each mouse was injected intraperitoneally with 2 × 10^3 Type I tachyzoites. Four hours after inoculation, the treatments were administered once per day for 7 consecutive days. NBZ023 and NBZ035 were dissolved in isotonic saline containing 5% ethanol and 5% Cremophor EL to a concentration of 1 mg/mL for in vivo experiments. Sulfadiazine (10 mg/mL, Sigma, USA), pyrimethamine (5 mg/mL, Sigma, USA), and folinic acid (1.5 mg/mL, Sigma, USA) were suspended in isotonic saline containing 1% CMC-Na and used as positive drugs in in vivo experiments. […] After the mice were euthanized on the eighth day, the brains, livers, and spleens were collected. DNA was isolated with a DNA purification kit ([…], Omega Bio-Tek, USA). The in vivo efficacy of the compounds against T. gondii was evaluated via quantitative real-time PCR with DNA from the brain, liver, and spleen. The numbers of parasites in the tissue samples were determined using standard curves constructed using known numbers of tachyzoites, as previously described.

T. gondii PRU strain = test: In vitro activity against PRU strain tachyzoites (PV counts, plaques); assay type: cell-based, Toxoplasma gondii; settings: NBZ023 2.85 or 30 μM, NBZ035 1.6 or 30 μM; 24, 48, 72 h
Protocol: Vero cells were infected for 8 h with extracellular type II PRU strain tachyzoites (1.5 × 10^5), which were isolated from a mouse brain, and then the medium containing compounds or 0.1% DMSO (as a control) was added. After 24, 48, and 72 h of incubation, the numbers of PVs were assessed via […] under a 40 × objective lens, and at least 20 random fields per well were counted.

[2] = system: T. gondii RH strain tachyzoites; test: In vitro anti-proliferation assay (qPCR of 529-bp repeat); assay type: cell-based, Toxoplasma gondii; settings: for pIC50: Toxoplasma gondii, RH strain in Vero cells, 24 h treatment, qPCR, read-out: IC50, inhibition of T. gondii proliferation
Protocol: The antiproliferative effects of NBZ023 and NBZ035 on T. gondii were determined via qPCR, which was performed by using a QuantStudio 3 Flex real-time PCR system (Life Technologies). Cells were infected with tachyzoites (2 × 10^5 per well) for 6 h, then treated with NBZ023, NBZ035 (0.24‒30 μM) or pyrimethamine (0.4 μM) for 24 h, and washed twice with PBS. Infected or uninfected cells that were cultured with DMEM (1% FBS) were used as the parasite or the host cell control group, respectively. Total genomic DNA from the cell samples was isolated with the DNAiso reagent (Takara), and the levels of the 529-bp repeat sequence of T. gondii were measured via qPCR as before.

[3] = system: T. gondii RH strain tachyzoites; test: In vitro anti-invasion assay (qPCR; RH-GFP fluorescence microscopy); assay type: cell-based, Toxoplasma gondii; settings: for pIC50: Toxoplasma gondii, Vero cells, 2 h after infection, read-out: IC50, inhibition of T. gondii invasion; for number of parasitophorous vacuoles (PVs) invaded by RH-GFP tachyzoites: fluorescence microscopy, compared with control and positive control groups
Protocol: Vero cells were seeded onto 6-well plates and cultured with DMEM supplemented with 10% FBS to obtain cell monolayers. The medium was replaced with fresh DMEM (1% FBS) containing NBZ023 or NBZ035 (0.24–30 μM), pyrimethamine (0.4 μM) or no drugs (as a control), and tachyzoites (2 × 10^6 per well) were then inoculated into the confluent Vero cell monolayers. At 2 h after infection, the cell monolayers were washed twice with PBS to remove extracellular tachyzoites and then total genomic DNA from the cell samples was isolated with the DNAiso reagent (Takara). The anti-invasion capabilities of NBZ023 and NBZ035 were determined by qPCR. The T. gondii RH strain with green fluorescence was seeded as described above. After infection, the cells were incubated for 36 h to fully observe the infection status of the parasites via fluorescence microscopy.

[4] = system: PRU strain bradyzoite cysts; test: In vitro PRU bradyzoite cyst formation (DBA staining); assay type: cell-based, Toxoplasma gondii; settings: PRU cysts in Vero cells, 48 h; NBZ023 2.85 or 30 μM, NBZ035 1.6 or 30 μM
Protocol: The conditions for inducing the formation of cysts in vitro by the type II PRU strain were described in a previously published study. After the induction of cyst formation, the alkaline medium was removed and replaced with a medium containing NBZ023, NBZ035, or 0.1% DMSO as the control. After 48 h, the DMEM was removed, and the PRU strain bradyzoite cysts were stained with Dolichos biflorus agglutinin (DBA) to assess the treatment effects.The stained cysts were observed using light microscopy under a 40 × objective lens, with at least 3 random fields per well counted.

[5] = Cell viability assay (CCK-8) on Vero cells; assay type: cell-based, African green monkey; settings: African green monkey, CCK-8, read-out: half-maximal cytotoxic concentration (CC50) against host cells
Protocol: as §1

Compound | inhibition of growth at 30 µM (T. gondii RH tachyzoites) [%] | Cytotoxicity (Vero cells) [µM] | inhibition at 30 µM (Vero cells) [%] | also measured
CC(=O)OC[C@H]1O[C@@H](OC(C)=O)[C@H](NC(=O)c2ccc3[nH]c4c(C(=O)c5ccccc5Br)nccc4c3c2)[C@@H](OC(C)=O)[C@@H]1OC(C)=O [NBZ019] | 35.9 | > 30.00 | 9.56 | –
O=C(Nc1cccc2ccccc12)c1ccc2[nH]c3c(C(=O)c4ccccc4Br)nccc3c2c1 [NBZ020] | 7.22 | > 30.00 | 8.15 | –
O=C(Nc1ccccc1)c1ccc2[nH]c3c(C(=O)c4ccccc4Cl)nccc3c2c1 [NBZ021] | > 50 | > 30.00 | 11.4 | improved efficacy over NBZ022 (T. gondii RH tachyzoites; 30 μM screening, ortho-Cl versus NBZ022): 66.21%
O=C(Nc1ccccc1)c1ccc2[nH]c3c(C(=O)c4ccccc4Br)nccc3c2c1 [NBZ022] | 17.4 | > 30.00 | 46.8 | –
O=C(Nc1ccccc1)c1ccc2[nH]c3c(C(=O)c4cccc(Br)c4)nccc3c2c1 [NBZ023] | – | > 30.00 | 4.56 | ultrastructural change of T. gondii tachyzoites (TEM) (T. gondii tachyzoites; 24 h of treatment): the parasite ruptured, and severe cavitation occurred; ultrastructural change of T. gondii tachyzoites (TEM) (T. gondii tachyzoites; incubation 8 h): cracks in the somatic cytoplasm of the parasite; reduction of mean T. gondii burden in the liver [1]: 56.42%; reduction of mean numbers of T. gondii parasites in the brain [1]: 70.72%; reduction of mean numbers of T. gondii parasites in the spleen [1]: 68.90%; increase in potency compared with nonaromatic heterocycles (NBZ016–018) (T. gondii RH tachyzoites; 30 μM screening): 2- to 3 fold; proliferation ability of the T. gondii PRU strain (parasites per PV, number of PVs) (T. gondii PRU strain): significantly (P ≤ 0.05) inhibited; selectivity index (SI) ([2]; CC50 host cells / IC50 proliferation): 309.8; pIC50 [2]: 5.55; pIC50 ([3]; RH strain, qPCR): 5.33; number of parasitophorous vacuoles (PVs) invaded by RH-GFP tachyzoites [3]: significantly reduced; inhibition of the formation of T. gondii cysts compared with control [4]: twofold; CC50 at 24 h [5]: 883 µM
Cc1ccccc1NC(=O)c1ccc2[nH]c3c(C(=O)c4ccccc4Br)nccc3c2c1 [NBZ024] | 3.45 | > 30.00 | 24.4 | –
Cc1ccc(NC(=O)c2ccc3[nH]c4c(C(=O)c5ccccc5Cl)nccc4c3c2)cc1 [NBZ025] | 32.6 | > 30.00 | 3.96 | –
Cc1ccc(NC(=O)c2ccc3[nH]c4c(C(=O)c5ccccc5Br)nccc4c3c2)cc1 [NBZ026] | 21.1 | > 30.00 | 23.6 | –
COc1ccc(NC(=O)c2ccc3[nH]c4c(C(=O)c5ccccc5Br)nccc4c3c2)cc1 [NBZ029] | 30.3 | > 30.00 | 27.9 | –
CN(C)c1cccc(NC(=O)c2ccc3[nH]c4c(C(=O)c5ccccc5Cl)nccc4c3c2)c1 [NBZ030] | 69.2 | > 30.00 | 12.8 | –
CN(C)c1cccc(NC(=O)c2ccc3[nH]c4c(C(=O)c5ccccc5Br)nccc4c3c2)c1 [NBZ031] | 72.7 | > 30.00 | 6.47 | –
CN(C)c1ccc(NC(=O)c2ccc3[nH]c4c(C(=O)c5ccccc5Cl)nccc4c3c2)cc1 [NBZ032] | 73 | > 30.00 | 16 | –
CN(C)c1ccc(NC(=O)c2ccc3[nH]c4c(C(=O)c5ccccc5Br)nccc4c3c2)cc1 [NBZ033] | 14.3 | > 30.00 | 11.2 | –
O=C(Nc1ccccc1)c1ccc2[nH]c3c4[n+](ccc3c2c1)-c1ccccc1C4=O [NBZ035] | – | > 30.00 | 3.27 | ultrastructural change of T. gondii tachyzoites (TEM) (T. gondii tachyzoites; 24 h of treatment): the parasite ruptured, and severe cavitation occurred; ultrastructural change of T. gondii tachyzoites (TEM) (T. gondii tachyzoites; incubation 8 h): cracks in the somatic cytoplasm of the parasite; reduction of mean T. gondii burden in the liver [1]: 88.52%; reduction of mean numbers of T. gondii parasites in the brain [1]: 93.21%; reduction of mean numbers of T. gondii parasites in the spleen [1]: 89.40%; proliferation ability of the T. gondii PRU strain (parasites per PV, number of PVs) (T. gondii PRU strain): significantly (P ≤ 0.05) inhibited; pIC50 [2]: 5.80; pIC50 ([3]; RH strain, qPCR): 5.95; number of parasitophorous vacuoles (PVs) invaded by RH-GFP tachyzoites [3]: significantly reduced; inhibition of the formation of T. gondii cysts compared with control [4]: twofold; CC50 at 24 h [5]: 80.6 µM
Cc1ccccc1NC(=O)c1ccc2[nH]c3c4[n+](ccc3c2c1)-c1ccccc1C4=O [NBZ036] | 42.9 | > 30.00 | 9.02 | –
CCc1nc(N)nc(N)c1-c1ccc(Cl)cc1 [pyrimethamine, reference compound] | – | – | – | anti-invasion rate ([3]; 0.4 μM, RH strain, qPCR): 26.77%
